From ChEMBL document CHEMBL1201862, “PubChem BioAssay data set” (2004)
The source made the active and inactive calls.

Tests used:
[1] = general cell-killing toxicity readout – plate reader, dry powder samples, cytotoxicity control for PAX8 inhibitor project, dose response (AID 743021); assay type: functional, cell-based
[2] = toxicity toward HepG2 liver cells – cell-based, plate reader, cherry-pick, antagonist series, cytotoxicity control, dose response (AID 743416); assay type: functional
[3] = blockers of bursicon-stimulated LGR2 cAMP reporter – cell-based, HEK293, CRE-luciferase reporter, cherry pick, set 2, dose response (AID 743343); assay type: functional;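 note: transfected cells were stimulated with diluted bursicon conditioned medium after compound addition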
Paired box protein Pax-8 = Paired box protein Pax-8 (Homo sapiens, UniProt Q06710); experiment: PAX8 transcriptional activity inhibition in RMG-I – RMG-I cells, luciferase, cherry-pick, dose response (AID 687027); assay type: functional, cell-based;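 note: luciferase reporter driven by Pax8 target thyroperoxidase promoter measured by SteadyGlo luminescence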
Sequence of Paired box protein Pax-8 (Q06710 whole entry): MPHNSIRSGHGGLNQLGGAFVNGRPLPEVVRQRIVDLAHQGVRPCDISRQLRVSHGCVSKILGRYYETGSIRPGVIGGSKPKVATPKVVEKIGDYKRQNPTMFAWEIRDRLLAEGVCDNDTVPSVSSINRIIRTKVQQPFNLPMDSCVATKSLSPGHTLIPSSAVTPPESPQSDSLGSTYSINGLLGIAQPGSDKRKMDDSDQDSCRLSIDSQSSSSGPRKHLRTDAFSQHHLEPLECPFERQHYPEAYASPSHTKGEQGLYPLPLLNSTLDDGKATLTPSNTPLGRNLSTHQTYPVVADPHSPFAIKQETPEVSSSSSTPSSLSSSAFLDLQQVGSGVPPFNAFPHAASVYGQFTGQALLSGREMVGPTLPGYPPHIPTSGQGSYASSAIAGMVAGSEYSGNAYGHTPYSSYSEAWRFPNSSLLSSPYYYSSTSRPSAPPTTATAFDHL

[4] = viability loss in HEK293 cells – cell-based, plate reader, cherry-picked samples, cytotoxicity control, dose response (AID 743446); assay type: functional
[5] = blockade of melanocortin 4 receptor signaling – cell-based, plate reader, cherry pick, counter-screen for LGR2 antagonist project, dose response (AID 743444); assay type: functional;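 note: transfected HEK 293 cells stimulated with alpha-MSH peptide; potency of inhibitors of the alpha-MSH evoked signal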
[6] = A549 cell cytotoxicity, dose response, cytotoxicity control, plate reader, cherry-pick, antagonist series (AID 743412); assay type: functional, cell-based
[7] = biological target: T1, Methionyl-tRNA synthetase, putative (Trypanosoma brucei brucei, UniProt Q38C91); assay type: functional, Trypanosoma brucei brucei strain 927/4 GUTat10.1
T1 sequence (Q38C91 whole entry): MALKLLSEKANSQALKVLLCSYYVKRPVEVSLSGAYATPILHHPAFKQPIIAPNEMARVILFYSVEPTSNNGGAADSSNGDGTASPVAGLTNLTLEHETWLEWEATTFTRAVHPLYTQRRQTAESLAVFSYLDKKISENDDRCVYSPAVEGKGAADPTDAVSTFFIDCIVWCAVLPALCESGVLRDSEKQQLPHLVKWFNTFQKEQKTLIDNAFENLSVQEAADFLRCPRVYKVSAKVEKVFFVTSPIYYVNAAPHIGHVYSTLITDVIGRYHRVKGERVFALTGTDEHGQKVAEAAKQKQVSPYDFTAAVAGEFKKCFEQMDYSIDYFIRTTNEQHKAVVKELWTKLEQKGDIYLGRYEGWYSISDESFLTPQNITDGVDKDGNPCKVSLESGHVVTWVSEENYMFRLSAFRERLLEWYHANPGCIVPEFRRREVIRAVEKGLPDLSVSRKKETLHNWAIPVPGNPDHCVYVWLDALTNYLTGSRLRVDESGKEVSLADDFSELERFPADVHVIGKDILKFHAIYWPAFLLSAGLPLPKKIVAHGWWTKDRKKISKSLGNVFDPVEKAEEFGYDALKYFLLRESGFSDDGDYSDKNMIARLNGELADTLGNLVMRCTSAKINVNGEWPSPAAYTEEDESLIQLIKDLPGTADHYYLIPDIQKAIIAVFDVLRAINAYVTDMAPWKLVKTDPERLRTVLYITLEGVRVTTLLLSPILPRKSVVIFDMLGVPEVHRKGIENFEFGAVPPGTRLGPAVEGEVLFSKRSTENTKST

[8] = Counterscreen for inhibitors of Trypanosoma brucei methionyl tRNA synthetase (MetRS): Luminescence-based cell-based high throughput dose response assay to identify compounds that are cytotoxic to Jurkat human T lymphocyte cells.; assay type: functional
[9] = biological target: T1, Methionyl-tRNA synthetase, putative; assay type: functional, Trypanosoma brucei brucei strain 927/4 GUTat10.1; remark: listed apart in the source
[10] = activation of miR-122 Renilla sensor silencing – cell-based, Huh7 psiCHECK-miR122, Renilla luciferase, cherry-picked, dose response (AID 651956); assay type: functional;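 note: huh7 hepatoma cells stably carrying a psiCHECK-2 miR-122 sensor plasmid; renilla luciferase signal reporting endogenous miR-122 activity after 48 h compound exposure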
[11] = general mammalian cell viability loss – activator set, cherry-pick, cytotoxicity control for miR-122 modulator project, dose response (AID 720690); assay type: functional, cell-based;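 note: HEK293T human cells scored for general mammalian cytotoxicity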
[12] = general mammalian cell viability loss – inhibitor set, cherry-pick, set 2, cytotoxicity control for miR-122 modulator project, dose response (AID 720697); assay type: functional, cell-based
[13] = T. cruzi growth inhibition in host cells, dose response, cell-based, plate reader, dry powder, set 2 (AID 652275); assay type: functional
[14] = cytotoxicity in MITF-independent A375 cells – cell-based, CellTiter-Glo luminescence, dry powder, set 4, counter-screen for MITF inhibitor project, dose response (AID 624364); assay type: functional; details: A-375;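 note: A375 melanoma cells are MITF independent so this is a counter screen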
[15] = viability loss in MITF-independent A375 cells – cell-based, CellTiter-Glo luminescence, dry powder, set 2, counter-screen for MITF inhibitor project, dose response (AID 624489); assay type: functional; details: A-375;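 note: actives are compounds lowering A375 viability meaning general cytotoxicity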
[16] = biological target: Kappa-type opioid receptor (Homo sapiens, UniProt P41145); experiment: Late-stage fluorescence-based cell-based dose response assay for antagonists of kappa opioid receptor 1 (OPRK1).; assay type: functional
Sequence of Kappa-type opioid receptor (P41145 whole entry): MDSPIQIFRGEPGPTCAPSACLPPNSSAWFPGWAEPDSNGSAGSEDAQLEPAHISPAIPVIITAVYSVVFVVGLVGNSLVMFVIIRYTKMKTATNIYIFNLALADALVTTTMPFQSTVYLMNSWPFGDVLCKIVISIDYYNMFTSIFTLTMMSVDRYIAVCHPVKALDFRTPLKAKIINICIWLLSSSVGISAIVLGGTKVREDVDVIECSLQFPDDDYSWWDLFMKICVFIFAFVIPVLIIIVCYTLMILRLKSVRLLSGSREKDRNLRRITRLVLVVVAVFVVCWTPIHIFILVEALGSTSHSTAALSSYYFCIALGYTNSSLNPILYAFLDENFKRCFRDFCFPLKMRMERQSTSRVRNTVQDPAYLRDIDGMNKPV

[17] = biological target: Sphingosine 1-phosphate receptor 1 (Homo sapiens, UniProt P21453); experiment: Late-stage counterscreen for antagonists of kappa opioid receptor 1 (OPRK1): fluorescence-based cell-based dose response assay to identify antagonists of Sphingosine 1-Phosphate Receptor 1 (S1P1).; assay type: functional
Sequence of Sphingosine 1-phosphate receptor 1 (P21453 whole entry): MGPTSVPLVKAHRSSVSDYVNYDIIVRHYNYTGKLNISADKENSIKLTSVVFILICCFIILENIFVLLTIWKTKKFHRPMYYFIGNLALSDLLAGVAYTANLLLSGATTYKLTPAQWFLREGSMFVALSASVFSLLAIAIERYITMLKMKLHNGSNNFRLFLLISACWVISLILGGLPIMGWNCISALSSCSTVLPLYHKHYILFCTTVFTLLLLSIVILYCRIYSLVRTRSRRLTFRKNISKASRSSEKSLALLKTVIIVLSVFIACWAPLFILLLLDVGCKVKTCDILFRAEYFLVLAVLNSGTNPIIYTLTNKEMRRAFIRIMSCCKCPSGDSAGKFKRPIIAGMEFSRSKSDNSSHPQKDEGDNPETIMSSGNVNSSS

[18] = biological target: Delta-type opioid receptor (Homo sapiens, UniProt P41143); experiment: Late-stage results from the probe development effort to identify antagonists of OPRK1: fluorescence-based cell-based dose response OPRD1 counterscreen, Set 2.; assay type: functional
Sequence of Delta-type opioid receptor (P41143 whole entry): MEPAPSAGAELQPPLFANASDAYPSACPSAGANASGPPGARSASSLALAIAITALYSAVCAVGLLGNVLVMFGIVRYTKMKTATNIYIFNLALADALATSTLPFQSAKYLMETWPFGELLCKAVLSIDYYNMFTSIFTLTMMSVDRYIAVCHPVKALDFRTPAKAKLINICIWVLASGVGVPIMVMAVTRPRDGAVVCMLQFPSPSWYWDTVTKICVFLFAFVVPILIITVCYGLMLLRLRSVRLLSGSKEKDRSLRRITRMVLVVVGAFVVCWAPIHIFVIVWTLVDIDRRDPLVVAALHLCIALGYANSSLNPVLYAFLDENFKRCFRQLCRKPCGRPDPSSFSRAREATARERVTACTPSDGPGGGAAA

Mu-type opioid receptor = Mu-type opioid receptor (Homo sapiens, UniProt P35372); experiment: Late-stage results from the probe development effort to identify antagonists of OPRK1: luminescence-based cell-based dose response OPRM1 counterscreen, Set 2.; assay type: functional
Sequence of Mu-type opioid receptor (P35372 whole entry): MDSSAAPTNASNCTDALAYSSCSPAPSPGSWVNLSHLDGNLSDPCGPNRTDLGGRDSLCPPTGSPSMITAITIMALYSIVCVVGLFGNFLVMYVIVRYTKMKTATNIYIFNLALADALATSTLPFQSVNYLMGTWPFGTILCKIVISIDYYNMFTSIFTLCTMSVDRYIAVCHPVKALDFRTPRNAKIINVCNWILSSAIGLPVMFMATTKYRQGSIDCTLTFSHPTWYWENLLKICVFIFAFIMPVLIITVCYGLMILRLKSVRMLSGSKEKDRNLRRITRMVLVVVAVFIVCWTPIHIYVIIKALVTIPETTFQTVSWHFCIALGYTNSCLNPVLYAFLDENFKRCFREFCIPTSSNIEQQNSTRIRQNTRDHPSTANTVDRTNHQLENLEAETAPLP

[19] = biological target: T2, C-C chemokine receptor type 6 (Homo sapiens, UniProt P51684); experiment: SAR analysis of small molecule antagonists of the CXCR6 receptor using a CCR6 receptor luminescent beta-arrestin counterscreen.; assay type: functional
T2 sequence (P51684 whole entry): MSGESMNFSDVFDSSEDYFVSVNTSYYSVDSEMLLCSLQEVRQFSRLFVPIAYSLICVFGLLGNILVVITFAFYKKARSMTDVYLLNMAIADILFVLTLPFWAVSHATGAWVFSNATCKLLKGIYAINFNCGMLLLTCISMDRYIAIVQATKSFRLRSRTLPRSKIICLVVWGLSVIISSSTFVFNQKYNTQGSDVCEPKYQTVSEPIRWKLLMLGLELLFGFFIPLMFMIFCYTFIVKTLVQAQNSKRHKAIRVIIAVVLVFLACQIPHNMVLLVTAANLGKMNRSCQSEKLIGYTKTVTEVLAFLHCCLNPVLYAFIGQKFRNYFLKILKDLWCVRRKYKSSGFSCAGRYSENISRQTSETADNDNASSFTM

[20] = biological target: C-X-C chemokine receptor type 4 (Homo sapiens, UniProt P61073); experiment: SAR analysis of small molecule antagonists of the CXCR6 receptor using a CXCR4 receptor luminescent beta-arrestin counterscreen.; assay type: functional
Sequence of C-X-C chemokine receptor type 4 (P61073 whole entry): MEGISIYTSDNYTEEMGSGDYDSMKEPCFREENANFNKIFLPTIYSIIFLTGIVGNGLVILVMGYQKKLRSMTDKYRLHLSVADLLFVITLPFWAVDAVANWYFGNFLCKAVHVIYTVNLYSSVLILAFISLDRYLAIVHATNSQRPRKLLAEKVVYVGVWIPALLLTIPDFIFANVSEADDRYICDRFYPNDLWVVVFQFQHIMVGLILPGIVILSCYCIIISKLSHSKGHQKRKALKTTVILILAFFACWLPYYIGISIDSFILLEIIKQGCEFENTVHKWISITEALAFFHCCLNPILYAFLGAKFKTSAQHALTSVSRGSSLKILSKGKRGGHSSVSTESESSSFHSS

[21] = HeLa cell viability loss – 24 h, dry powder, set 2, cytotoxicity control, dose response (AID 651774); assay type: functional, cell-based
[22] = cervical cancer cell viability loss – HeLa, 24 h, plate reader, powder samples, set 3, cytotoxicity control, dose response (AID 651864); assay type: functional, cell-based
[23] = inhibitors of non-replicating M. tuberculosis, dose response, luciferase, dry powder (AID 651619); assay type: functional; details: Mycobacterium tuberculosis
[24] = inhibitors of non-replicating M. tuberculosis, dose response, luciferase, dry powder (AID 651620); assay type: functional; details: Mycobacterium tuberculosis
[25] = biological target: Oxysterols receptor LXR-beta (Homo sapiens, UniProt P55055); assay type: functional, cell-based;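 note: agonist activity at LXR measured by a cell-based luminescence readout across a dose range, run as a counterscreen for daf-12 agonists; HEK293 cells with Gal4-LXR fusion and GAL4-driven luciferase reporter; potency for activation of Gal4-LXR reporter so compounds are agonists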
Sequence of Oxysterols receptor LXR-beta (P55055 whole entry, the tested form may be a part): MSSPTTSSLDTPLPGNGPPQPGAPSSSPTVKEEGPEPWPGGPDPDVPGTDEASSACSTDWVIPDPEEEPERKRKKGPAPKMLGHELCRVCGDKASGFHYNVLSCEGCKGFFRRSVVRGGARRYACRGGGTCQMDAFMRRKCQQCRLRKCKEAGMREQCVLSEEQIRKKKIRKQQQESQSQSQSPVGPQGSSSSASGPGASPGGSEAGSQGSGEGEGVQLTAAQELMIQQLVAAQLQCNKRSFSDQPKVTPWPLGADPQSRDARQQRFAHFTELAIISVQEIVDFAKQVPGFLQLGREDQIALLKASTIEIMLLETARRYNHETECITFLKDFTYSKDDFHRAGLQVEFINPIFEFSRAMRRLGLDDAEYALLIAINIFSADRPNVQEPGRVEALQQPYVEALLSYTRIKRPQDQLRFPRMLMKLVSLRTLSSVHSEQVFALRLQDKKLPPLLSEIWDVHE

[26] = optical artefact potency, substrate without enzyme – biochemical, fluorescence intensity, triplicate, artefact control for kallikrein-7 zymogen activator project, dose response (AID 720493)
Kallikrein-7 = Kallikrein-7 (Homo sapiens, UniProt P49862); experiment: Fluorescence Intensity-based biochemical primary high throughput dose response assay to identify activators of kallikrein-7 (K7) zymogen.
Sequence of Kallikrein-7 (P49862 whole entry): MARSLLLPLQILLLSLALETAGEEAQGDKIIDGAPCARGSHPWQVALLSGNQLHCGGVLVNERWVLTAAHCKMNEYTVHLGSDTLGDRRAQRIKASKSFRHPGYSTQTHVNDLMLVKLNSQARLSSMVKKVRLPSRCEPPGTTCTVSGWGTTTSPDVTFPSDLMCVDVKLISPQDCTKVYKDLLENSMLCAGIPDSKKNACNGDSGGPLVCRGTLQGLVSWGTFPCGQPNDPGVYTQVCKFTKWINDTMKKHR

Nc1[nH]cnc2c(C3OC(CO)C(O)C3O)cnc1-2 (centres undefined)
AC50 [1]: 19.5 µM (active) | AC50 [2]: 0.422 µM (active) | AC50 [3]: 0.407 µM (active) | AC50 (Paired box protein Pax-8): < 0.26 µM (active) | AC50 [4]: 0.832 µM (active) | AC50 [5]: 0.539 µM (active) | AC50 [6]: < 0.05 µM (active)

Cn1cc(S(=O)(=O)N2CCOCC2)cc1C(=O)NCc1ccc(Cl)cc1
IC50 [7]: 29.8 µM (inactive) | IC50 [8]: 83.3 µM (inactive) | IC50 [9]: 11.2 µM (inactive)

C[C@H](CO)N1C[C@H](C)[C@H](CN(C)Cc2ccc(C(F)(F)F)cc2)OCCCC[C@H](C)Oc2ccc(NC(=O)CCCN(C)C)cc2C1=O
AC50 [10]: 10.3 µM (active) | AC50 [11]: 15.7 µM (active) | AC50 [12]: 17.9 µM (active)

O=C(CN1CCOCC1)N1CCCCN2[C@@H](CO)[C@H](c3ccc(-c4ccccc4)cc3)[C@@H]2C1
AC50 [13]: 2.39 µM (active)

C=CCNC1=C(NS(=O)(=O)c2ccc(Br)cc2)C(=O)c2ccccc2C1=O
AC50 [14]: > 70 µM (inactive) | AC50 [15]: > 70 µM (inactive)

COc1ccccc1C1CCN(Cc2ccc3c(c2)CCC(C)(C)O3)CC1
IC50 [16]: 4.66 µM (active) | IC50 [17]: > 50 µM (inactive) | IC50 [18]: > 50 µM (inactive) | IC50 (Mu-type opioid receptor): 7.4 µM (active)

COc1ccc(CN2C3CCCC2CC(NC(=O)c2cc(OC)c(OC)c(OC)c2)C3)cc1 (centres undefined)
IC50 [19]: > 79 µM (inactive) | IC50 [20]: 57.5 µM (inactive)

CCn1nnnc1NCc1ccc(C(C)C)cc1
AC50 [21]: > 70 µM (inactive) | AC50 [22]: 144 µM (active)

Fc1ccc(-c2nnc(SCc3cn(Cc4ccccc4)nn3)o2)cc1
IC90 [23]: 1 µM (active) | IC90 [24]: 1 µM (active)

Cc1ccsc1/C=N/NC(=O)c1sccc1C
EC50 [25]: > 67.5 µM (inactive)

COc1ccc(-c2coc3cc(O)c(OC)cc3c2=O)cc1 [CASTANIN]
EC50 [26]: > 7.73 µM (active) | EC50 (Kallikrein-7): 9 µM (active)
